# Experiments:
# Assay type in all cases: cell-based
# S. aureus USA 600 = assay: broth microdilution MIC assay, S. aureus USA600; conditions: Staphylococcus aureus; S. aureus USA600 (MRSA); read-out: MIC, S. aureus USA600
# In short: (§1)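 MIC is the lowest compound concentration with no visible growth after 16-20 h at 37° C. Testing followed CLSI microdilution, with 2-fold compound series in Mueller-Hinton broth supplemented with divalent cations and a starting inoculum of 5×10^5 CFU/mL.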
# [1] = system: P. aeruginosa ΔmexAB-OprM (an efflux pump knockout); assay: broth microdilution MIC assay, P. aeruginosa ΔmexAB-OprM; conditions: Pseudomonas aeruginosa, read-out: MIC, P. aeruginosa ΔmexAB-OprM
# In short: as §1
# [2] = system: E. coli ATCC 25922 (wild-type/QC strain); assay: broth microdilution MIC assay, E. coli 25922; conditions: Escherichia coli, ATCC25922; read-out: MIC, E. coli 25922
# In short: as §1
# [3] = system: P. aeruginosa 35151 (hyper-permeable strain); assay: broth microdilution MIC assay, P. aeruginosa 35151; conditions: Pseudomonas aeruginosa, read-out: MIC, P. aeruginosa 35151
# In short: as §1
# S. aureus USA 300 = assay: broth microdilution MIC assay, S. aureus USA300; conditions: Staphylococcus aureus; S. aureus USA300 (MRSA); read-out: MIC, S. aureus USA300
# In short: as §1
# [4] = system: P. aeruginosa ATCC 27853 (wild-type/QC strain); assay: broth microdilution MIC assay, P. aeruginosa 27853; conditions: Pseudomonas aeruginosa, ATCC27853; read-out: MIC, P. aeruginosa 27853
# In short: as §1
# [5] = system: S. aureus ATCC 33591 (methicillin-resistant); assay: broth microdilution MIC assay, S. aureus 33591; conditions: Staphylococcus aureus, ATCC33591; S. aureus 33591, methicillin-resistant; read-out: MIC, S. aureus 33591
# In short: as §1
# P. aeruginosa Paeβ-17 = assay: broth microdilution MIC assay, P. aeruginosa Paeβ-17; conditions: Pseudomonas aeruginosa, read-out: MIC, P. aeruginosa Paeβ-17
# In short: as §1
SMILES,MIC (S. aureus USA 600),MIC [1],MIC [2],MIC [3],MIC (S. aureus USA 300),MIC [4],MIC [5],MIC (P. aeruginosa Paeβ-17)
"C[C@@H](O)[C@H]1C(=O)N2C(C(=O)O)=C(S[C@@H]3CCN(C[C@H]4CC[C@@H](N)CC4)C3)[C@H](C)[C@H]12 [Example 72, (4R,5S,6S)-3-(((R)-1-(((1S,4S)-4-aminocyclohexyl)methyl)pyrrolidin-3-yl)thio)-6-((R)-1-hydroxyethyl)-4-methyl-7-oxo-1-azabicyclo[3.2.0]hept-2-ene-2-carboxylic acid]",1 to 4 µg/mL,8 to 32 µg/mL,< 1 µg/mL,< 1 µg/mL,1 to 4 µg/mL,1 to 4 µg/mL,8 to 32 µg/mL,1 to 4 µg/mL
"C[C@@H](O)[C@H]1C(=O)N2C(C(=O)O)=C(S[C@H]3C[C@H](N[C@H]4CC[C@H](NC(=N)N)C4)C3)[C@H](C)[C@H]12 [Example 73, (4R,5S,6S)-3-(((1S,3R)-3-(((1S,3S)-3-guanidinocyclopentyl)amino)cyclobutyl)thio)-6-((R)-1-hydroxyethyl)-4-methyl-7-oxo-1-azabicyclo[3.2.0]hept-2-ene-2-carboxylic acid]",1 to 4 µg/mL,8 to 32 µg/mL,< 1 µg/mL,< 1 µg/mL,1 to 4 µg/mL,1 to 4 µg/mL,8 to 32 µg/mL,1 to 4 µg/mL
"C[C@@H](O)[C@H]1C(=O)N2C(C(=O)O)=C(S[C@H]3C[C@H](N[C@H]4CC[C@@H](N)C4)C3)[C@H](C)[C@H]12 [Example 74, (4R,5S,6S)-3-(((1S,3R)-3-(((1S,3R)-3-aminocyclopentyl)amino)cyclobutyl)thio)-6-((R)-1-hydroxyethyl)-4-methyl-7-oxo-1-azabicyclo[3.2.0]hept-2-ene-2-carboxylic acid]",1 to 4 µg/mL,8 to 32 µg/mL,< 1 µg/mL,< 1 µg/mL,8 to 32 µg/mL,8 to 32 µg/mL,8 to 32 µg/mL,1 to 4 µg/mL
"C[C@@H](O)[C@H]1C(=O)N2C(C(=O)O)=C(S[C@H]3C[C@@H](N[C@H]4CC[C@H](N)C4)C3)[C@H](C)[C@H]12 [Example 75, (4R,5S,6S)-3-(((1R,3S)-3-(((1S,3S)-3-aminocyclopentyl)amino)cyclobutyl)thio)-6-((R)-1-hydroxyethyl)-4-methyl-7-oxo-1-azabicyclo[3.2.0]hept-2-ene-2-carboxylic acid]",1 to 4 µg/mL,8 to 32 µg/mL,< 1 µg/mL,< 1 µg/mL,1 to 4 µg/mL,1 to 4 µg/mL,8 to 32 µg/mL,1 to 4 µg/mL
